# Reference: publication PMC8617627, “Novel DYRK1A Inhibitor Rescues Learning and Memory Deficits in a Mouse Model of Down Syndrome” (Pharmaceuticals, 2021)
# Where two headings read alike, the source gives them in different places.
# Tests used:
# Test in all cases: Kinase profile (33P ATP filter binding)
# Assay type in all cases: biochemical
# CHK2 = CHK2 (Homo sapiens, UniProt O96017); settings: read-out: Remaining protein kinase activity
# ASK1 = biological target: T1, ASK1 (Homo sapiens, UniProt Q99683); settings: read-out: Remaining protein kinase activity
# T1 sequence (Q99683 1-1374): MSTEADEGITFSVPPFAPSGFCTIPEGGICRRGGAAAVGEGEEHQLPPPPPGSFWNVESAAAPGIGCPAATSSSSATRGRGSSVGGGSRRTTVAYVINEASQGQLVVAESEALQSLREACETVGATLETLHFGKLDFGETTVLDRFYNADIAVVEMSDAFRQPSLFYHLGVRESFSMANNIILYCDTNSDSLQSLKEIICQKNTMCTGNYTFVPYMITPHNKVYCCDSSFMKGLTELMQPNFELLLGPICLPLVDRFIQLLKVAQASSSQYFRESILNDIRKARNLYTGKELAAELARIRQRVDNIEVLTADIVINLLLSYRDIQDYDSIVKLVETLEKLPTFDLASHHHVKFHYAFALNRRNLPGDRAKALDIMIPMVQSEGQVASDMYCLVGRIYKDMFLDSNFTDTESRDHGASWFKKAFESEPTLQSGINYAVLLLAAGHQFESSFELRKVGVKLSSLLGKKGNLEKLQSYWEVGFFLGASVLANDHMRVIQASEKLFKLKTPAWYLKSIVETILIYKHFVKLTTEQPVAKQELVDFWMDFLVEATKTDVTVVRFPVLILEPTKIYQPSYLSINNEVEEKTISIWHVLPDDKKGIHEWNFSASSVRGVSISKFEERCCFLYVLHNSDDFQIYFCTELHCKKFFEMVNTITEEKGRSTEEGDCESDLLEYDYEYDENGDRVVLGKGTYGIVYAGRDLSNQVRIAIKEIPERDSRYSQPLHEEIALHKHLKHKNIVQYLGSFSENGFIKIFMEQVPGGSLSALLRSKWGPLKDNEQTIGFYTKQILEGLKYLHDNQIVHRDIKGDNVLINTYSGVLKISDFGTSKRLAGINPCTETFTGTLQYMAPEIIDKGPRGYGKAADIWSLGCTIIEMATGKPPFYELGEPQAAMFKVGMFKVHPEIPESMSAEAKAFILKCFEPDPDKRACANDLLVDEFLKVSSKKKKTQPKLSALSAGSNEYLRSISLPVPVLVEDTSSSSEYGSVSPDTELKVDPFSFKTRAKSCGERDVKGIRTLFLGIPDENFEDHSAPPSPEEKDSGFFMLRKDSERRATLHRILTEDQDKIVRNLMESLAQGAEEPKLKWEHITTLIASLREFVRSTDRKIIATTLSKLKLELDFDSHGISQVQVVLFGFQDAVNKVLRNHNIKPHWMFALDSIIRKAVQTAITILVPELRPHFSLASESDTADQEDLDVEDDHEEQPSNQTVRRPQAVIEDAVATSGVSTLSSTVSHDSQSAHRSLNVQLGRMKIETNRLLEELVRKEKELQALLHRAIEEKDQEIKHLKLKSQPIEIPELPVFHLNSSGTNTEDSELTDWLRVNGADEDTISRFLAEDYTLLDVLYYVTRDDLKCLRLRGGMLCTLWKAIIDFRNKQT
# HIPK1 = HIPK1 (Homo sapiens, UniProt Q86Z02); settings: read-out: Remaining protein kinase activity
# Chain of HIPK1 (Q86Z02 whole entry): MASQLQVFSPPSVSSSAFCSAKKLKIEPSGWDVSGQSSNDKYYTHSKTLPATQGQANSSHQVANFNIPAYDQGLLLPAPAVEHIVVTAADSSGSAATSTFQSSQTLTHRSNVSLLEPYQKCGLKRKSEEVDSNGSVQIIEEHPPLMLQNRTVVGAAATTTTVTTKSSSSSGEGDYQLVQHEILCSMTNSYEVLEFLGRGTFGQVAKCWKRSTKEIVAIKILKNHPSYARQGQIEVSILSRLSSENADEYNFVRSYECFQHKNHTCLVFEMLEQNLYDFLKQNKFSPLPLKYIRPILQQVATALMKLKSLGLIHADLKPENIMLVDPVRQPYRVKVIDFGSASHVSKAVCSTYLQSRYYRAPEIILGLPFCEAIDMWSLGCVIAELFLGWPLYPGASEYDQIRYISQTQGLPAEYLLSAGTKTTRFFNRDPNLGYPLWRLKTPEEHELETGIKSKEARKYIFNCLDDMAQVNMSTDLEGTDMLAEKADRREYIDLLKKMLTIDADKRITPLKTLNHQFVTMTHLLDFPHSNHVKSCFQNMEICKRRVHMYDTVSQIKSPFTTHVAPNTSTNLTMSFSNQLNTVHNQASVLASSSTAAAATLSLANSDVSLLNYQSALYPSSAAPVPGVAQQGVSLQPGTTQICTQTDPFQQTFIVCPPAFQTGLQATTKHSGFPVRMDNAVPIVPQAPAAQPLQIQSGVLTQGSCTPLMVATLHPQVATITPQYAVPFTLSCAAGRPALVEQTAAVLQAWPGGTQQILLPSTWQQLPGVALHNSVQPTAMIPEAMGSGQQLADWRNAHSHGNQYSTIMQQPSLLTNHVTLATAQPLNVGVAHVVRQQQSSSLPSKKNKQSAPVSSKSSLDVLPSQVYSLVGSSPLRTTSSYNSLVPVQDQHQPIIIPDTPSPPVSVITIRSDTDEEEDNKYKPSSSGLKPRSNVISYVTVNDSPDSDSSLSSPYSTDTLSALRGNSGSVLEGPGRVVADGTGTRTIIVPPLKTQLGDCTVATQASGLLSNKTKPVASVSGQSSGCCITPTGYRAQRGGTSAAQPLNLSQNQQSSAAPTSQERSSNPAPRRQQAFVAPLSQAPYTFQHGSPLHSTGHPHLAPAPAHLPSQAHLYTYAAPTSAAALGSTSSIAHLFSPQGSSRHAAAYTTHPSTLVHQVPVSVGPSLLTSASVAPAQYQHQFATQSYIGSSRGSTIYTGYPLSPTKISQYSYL
# IRAK4 = biological target: T2, IRAK4 (Homo sapiens, UniProt Q9NWZ3)
# T2 sequence (Q9NWZ3 1-460): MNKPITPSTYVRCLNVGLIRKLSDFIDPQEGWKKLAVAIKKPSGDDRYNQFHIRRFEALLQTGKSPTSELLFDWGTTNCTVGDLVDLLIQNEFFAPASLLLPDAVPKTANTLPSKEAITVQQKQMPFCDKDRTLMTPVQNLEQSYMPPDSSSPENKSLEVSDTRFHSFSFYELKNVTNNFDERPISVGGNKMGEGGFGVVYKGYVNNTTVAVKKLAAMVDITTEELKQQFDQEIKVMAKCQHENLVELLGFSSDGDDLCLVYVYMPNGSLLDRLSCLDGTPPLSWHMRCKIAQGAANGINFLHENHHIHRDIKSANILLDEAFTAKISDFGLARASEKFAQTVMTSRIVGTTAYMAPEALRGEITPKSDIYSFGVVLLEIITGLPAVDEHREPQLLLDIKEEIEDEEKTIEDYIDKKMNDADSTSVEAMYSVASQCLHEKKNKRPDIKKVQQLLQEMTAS
# Chain of CHK2 (O96017 whole entry): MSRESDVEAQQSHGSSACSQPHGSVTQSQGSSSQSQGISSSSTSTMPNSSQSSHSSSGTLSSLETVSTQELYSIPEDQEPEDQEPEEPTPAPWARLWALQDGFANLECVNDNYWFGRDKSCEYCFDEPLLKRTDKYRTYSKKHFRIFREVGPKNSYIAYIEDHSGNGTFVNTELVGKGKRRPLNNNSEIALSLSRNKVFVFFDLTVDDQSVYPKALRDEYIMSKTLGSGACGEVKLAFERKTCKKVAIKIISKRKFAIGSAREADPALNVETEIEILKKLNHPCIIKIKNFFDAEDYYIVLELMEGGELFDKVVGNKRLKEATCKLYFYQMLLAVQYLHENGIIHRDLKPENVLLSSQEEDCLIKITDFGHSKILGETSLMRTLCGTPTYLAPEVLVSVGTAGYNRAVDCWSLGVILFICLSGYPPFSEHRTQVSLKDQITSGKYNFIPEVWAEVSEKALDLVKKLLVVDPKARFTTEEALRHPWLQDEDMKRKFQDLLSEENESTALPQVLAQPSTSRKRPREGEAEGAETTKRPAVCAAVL
Structure (SMILES),"remaining activity at 1 µM (CHK2; CHK2, 1 μM)","remaining activity at 100 µM (CHK2; CHK2, 100 μM)","remaining activity at 1 µM (ASK1; ASK1, 1 μM)","remaining activity at 100 µM (ASK1; ASK1, 100 μM)","remaining activity at 1 µM (HIPK1; HIPK1, 1 μM)","remaining activity at 100 µM (HIPK1; HIPK1, 100 μM)",Remaining protein kinase activity (IRAK4; 1 μM),Remaining protein kinase activity (IRAK4; 100 μM),remaining activity at 1 µM (CHK2),remaining activity at 100 µM (CHK2),remaining activity at 1 µM (ASK1),remaining activity at 100 µM (ASK1),remaining activity at 1 µM (HIPK1),remaining activity at 100 µM (HIPK1)
"COc1ccc2sc(-c3cncc(N)c3)nc2c1 [compound 1, 5-(5-Methoxybenzo[d]thiazol-2-yl)pyridin-3-amine]",114%,52%,116%,150%,116%,36%,85%,18%,,,,,,
"COc1ccc2sc(-c3cncc(NC(C)=O)c3)nc2c1 [PST-001, N-(5-(5-Methoxybenzo[d]thiazol-2-yl)pyridin-3-yl)acetamide]",,,,,,,88%,32%,105%,85%,114%,131%,113%,113%
